Experimental data as given in PMC8427694, “The Herbal Compound Thymol Targets Multiple Salmonella Typhimurium Virulence Factors for Lon Protease Degradation” (Frontiers in Pharmacology, 2021).

Key:
Format in all cases: cell-based
GST-SipA27-270 [1] = molecular target: T1, GST-SipA27-270 (Salmonella enterica, UniProt E1WAC6); experiment: click chemistry labelling, in-gel fluorescence; details: covalent (suggested; survives SDS and 100 °C); labelled compound; compound added to E. coli culture during expression, 20 °C, 16 h; possibly a cellular derivative binds
T1 construct: gene sipA
T1 sequence (E1WAC6 27-270): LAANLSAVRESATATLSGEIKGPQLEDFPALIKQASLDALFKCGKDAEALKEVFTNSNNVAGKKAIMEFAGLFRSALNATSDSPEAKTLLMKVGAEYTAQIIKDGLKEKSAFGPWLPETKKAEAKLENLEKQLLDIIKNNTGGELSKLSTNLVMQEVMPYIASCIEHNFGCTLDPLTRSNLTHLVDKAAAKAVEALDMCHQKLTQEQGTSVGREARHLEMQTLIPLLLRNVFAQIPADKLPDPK

GST-SipA497-669 [2] = molecular target: T2, GST-SipA497-669 (Salmonella enterica, UniProt E1WAC6); experiment: click chemistry labelling, in-gel fluorescence; details: covalent (suggested; survives SDS and 100 °C); labelled compound; compound added to E. coli culture during expression, 20 °C, 16 h; possibly a cellular derivative binds
T2 construct: gene sipA; residues 497-669 (actin nucleation domain), N-terminal GST (pGEX-6p-1) kept, expressed in E. coli BL21(DE3), glutathione-Sepharose purified
T2 sequence (E1WAC6 497-669 limits assumed): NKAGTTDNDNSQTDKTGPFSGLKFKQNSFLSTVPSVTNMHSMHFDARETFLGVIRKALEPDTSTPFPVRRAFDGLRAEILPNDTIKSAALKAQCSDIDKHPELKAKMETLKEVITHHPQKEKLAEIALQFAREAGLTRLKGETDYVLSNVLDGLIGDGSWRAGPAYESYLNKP

GST-SipA27-270 [3] = molecular target: T1, GST-SipA27-270; experiment: circular dichroism of purified protein from thymol-exposed cells; details: thymol present in E. coli culture during expression; protein 7.9 uM in PBS, 25 °C
GST-SipA497-669 [4] = molecular target: T2, GST-SipA497-669; experiment: as above; details: thymol present in E. coli culture during expression; protein 7.3 uM in PBS, 25 °C

| Structure (SMILES) | click chemistry labelling, in-gel fluorescence (GST-SipA27-270 [1]) | click chemistry labelling, in-gel fluorescence (GST-SipA497-669 [2]) | circular dichroism of purified protein from thymol-exposed cells (GST-SipA27-270 [3]) | circular dichroism of purified protein from thymol-exposed cells (GST-SipA497-669 [4]) |
| --- | --- | --- | --- | --- |
| C#CCOc1cc(C)ccc1C(C)C [alkyne-thymol] | Fluorescence signals were detected only in samples receiving alkyne-thymol | Fluorescence signals were detected only in samples receiving alkyne-thymol | – | – |
| Cc1ccc(C(C)C)c(O)c1 [thymol] | – | – | proteins purified from cells treated with thymol exhibited significant changes in their CD spectra | proteins purified from cells treated with thymol exhibited significant changes in their CD spectra |
